Data taken from US11407738B2 (Achillion Pharmaceuticals, Inc., priority 2015, dated 2022).

target: Human Factor D (Homo sapiens (Human), UniProt P00746); assay: Human Factor D assay; assay type: biochemical; conditions: Table 4; Factor D inhibition, substrate Z-L-Lys-SBzl
Description: Human Factor D (purified from human serum, Complement Technology, Inc.) at 80 nM final concentration is incubated with test compound at various concentrations for 5 min at room temperature in 50 mM Tris, 1M NaCl, pH 7.5. A synthetic substrate Z-L-Lys-SBzl and DTNB (Ellman's reagent) are added to final concentrations of 100 μM each. […] IC50 values are calculated by nonlinear regression of complement Factor D reaction rates as a function of test compound concentration.

Human Factor D, sequence (P00746 26-253): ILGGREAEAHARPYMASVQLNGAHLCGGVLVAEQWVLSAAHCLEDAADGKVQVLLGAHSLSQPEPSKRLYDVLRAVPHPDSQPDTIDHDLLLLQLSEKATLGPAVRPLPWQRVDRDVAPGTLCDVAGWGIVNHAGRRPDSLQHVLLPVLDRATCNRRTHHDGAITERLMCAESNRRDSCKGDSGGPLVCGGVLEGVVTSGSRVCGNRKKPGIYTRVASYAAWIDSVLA

`CC(=O)c1nn(CC(=O)N2C[C@H](F)C[C@H]2c2nc3nc(Br)ccc3[nH]2)c2ccc(-c3cnc(C)nc3)cc12` [Compound 564, 2-(3-Acetyl-5-(2-methylpyrimidin-5-yl)-1H-indazol-1-yl)-1-((2S,4R)-2-(5-bromo-1H-imidazo[4,5-b]pyridin-2-yl)-4-fluoropyrrolidin-1-yl)ethan-1-one] and `CC(=O)c1nn(CC(=O)N2C[C@H](F)C[C@@H]2c2nc3nc(Br)ccc3[nH]2)c2ccc(-c3cnc(C)nc3)cc12` [Compound 565, 2-(3-Acetyl-5-(2-methylpyrimidin-5-yl)-1H-indazol-1-yl)-1-((2R,4R)-2-(5-bromo-1H-imidazo[4,5-b]pyridin-2-yl)-4-fluoropyrrolidin-1-yl)ethan-1-one] cannot be ordered by IC50: over 10 µM for the first, over 10 µM for the second.

`Cc1cccc(NC(=O)[C@@H]2CC=CCN2C(=O)Cn2cc(C(N)=O)c3cc(-c4cnc(C)nc4)ccc32)n1` [Compound 566, (S)-1-(2-(2-((6-Methylpyridin-2-yl)carbamoyl)-3,6-dihydropyridin-(2H)-yl)-2-oxoethyl)-5-(2-methylpyrimidin-5-yl)-1H-indole-3-carboxamide] and `CC(=O)c1nn(CC(=O)N2CC=CC[C@H]2C(=O)Nc2cccc(C)n2)c2ccc(-c3cnc(C)nc3)cc12` [Compound 569, (S)-1-(2-(3-acetyl-5-(2-methylpyrimidin-5-yl)-1H-indazol-1-yl)acetyl)-N-(6-methylpyridin-2-yl)-1,2,3,6-tetrahydropyridine-2-carboxamide] cannot be ordered by IC50: over 10 µM for the first, over 10 µM for the second.

`CC(=O)c1nn(CC(=O)N2C[C@H](F)C[C@H]2C(=O)OCc2ccc(Br)nc2N)c2ccc(-c3cnc(C)nc3)cc12` [Compound 570, (2S,4R)-(2-amino-6-bromopyridin-3-yl)methyl 1-(2-(3-acetyl-5-(2-methylpyrimidin-5-yl)-1H-indazol-1-yl)acetyl)-4-fluoropyrrolidine-2-carboxylate] and `CC(=O)c1nn(CC(=O)N2C[C@H](F)C[C@H]2CC(=O)Nc2cccc(Br)n2)c2ccc(-c3cnc(C)nc3)cc12` [Compound 580, 2-((2R,4R)-1-(2-(3-Acetyl-5-(2-methylpyrimidin-5-yl)-1H-indazol-1-yl)acetyl)-4-fluoropyrrolidin-2-yl)-N-(6-bromopyridin-2-yl)acetamide] cannot be ordered by IC50: over 10 µM for the first, over 10 µM for the second.

`CC(=O)c1nn(CC(=O)N2C[C@H](F)C[C@H]2c2nnc(-c3cccc(Cl)c3F)[nH]2)c2ccc(-c3cnc(C)nc3)cc12` [Compound 571, 2-(3-acetyl-5-(2-methylpyrimidin-5-yl)-1H-indazol-1-yl)-1-((2S,4R)-2-(5-(3-chloro-2-fluorophenyl)-4H-1,2,4-triazol-3-yl)-4-fluoropyrrolidin-1-yl)ethan-1-one] and `CC(=O)c1nn(CC(=O)N2C[C@H](F)C[C@@H]2c2nnc(-c3cccc(Cl)c3F)[nH]2)c2ccc(-c3cnc(C)nc3)cc12` [Compound 572, 2-(3-acetyl-5-(2-methylpyrimidin-5-yl)-1H-indazol-1-yl)-1-((2R,4R)-2-(5-(3-chloro-2-fluorophenyl)-4H-1,2,4-triazol-3-yl)-4-fluoropyrrolidin-1-yl)ethan-1-one] cannot be ordered by IC50: over 10 µM for the first, over 10 µM for the second.

Compared with `CC(=O)c1nn(CC(=O)N2CC=CC[C@H]2C(=O)Nc2cccc(Br)n2)c2ccc(-c3cnc(C)nc3)cc12` [Compound 573, (S)-1-(2-(3-Acetyl-5-(2-methylpyrimidin-5-yl)-1H-indazol-1-yl)acetyl)-N-(6-bromopyridin-2-yl)-1,2,3,6-tetrahydropyridine-2-carboxamide], `Cc1ncc(-c2ccc3c(c2)c(C(=O)NS(C)(=O)=O)nn3CC(=O)N2C[C@H](F)C[C@H]2C(=O)Nc2cccc(Br)n2)cn1` [Compound 585, 1-(2-((2S,4R)-2-((6-bromopyridin-2-yl)carbamoyl)-4-fluoropyrrolidin-1-yl)-2-oxoethyl)-5-(2-methylpyrimidin-5-yl)-N-(methylsulfonyl)-1H-indazole-3-carboxamide] is higher in IC50: under 1 µM for the first, over 10 µM for the second. The first is the more potent here.

Compared with `CC(=O)c1nn(CC(=O)N2C[C@H](F)C[C@H]2c2nnc(-c3cccc(Cl)c3F)o2)c2ccc(-c3cnc(C)nc3)cc12` [Compound 574, 2-(3-Acetyl-5-(2-methylpyrimidin-5-yl)-1H-indazol-1-yl)-1-((2S,4R)-2-(5-(3-chloro-2-fluorophenyl)-1,3,4-oxadiazol-2-yl)-4-fluoropyrrolidin-1-yl)ethan-1-one], `CC(=O)c1nn(CC(=O)N2C[C@H](F)C[C@H]2CC(=O)Nc2cccc(Cl)c2F)c2ccc(-c3cnc(C)nc3)cc12` [Compound 576, 2-((2R,4R)-1-(2-(3-Acetyl-5-(2-methylpyrimidin-5-yl)-1H-indazol-1-yl)acetyl)-4-fluoropyrrolidin-2-yl)-N-(3-chloro-2-fluorophenyl)acetamide] is higher in IC50: 1 to 10 µM for the first, over 10 µM for the second. The first is the more potent here.

`CC(=O)c1nn(CC(=O)N2C[C@H](F)C[C@H]2CC(N)=O)c2ccc(-c3cnc(C)nc3)cc12` [Compound 575, 2-((2R,4R)-1-(2-(3-Acetyl-5-(2-methylpyrimidin-5-yl)-1H-indazol-1-yl)acetyl)-4-fluoropyrrolidin-2-yl)acetamide] and `CC(=O)c1nn(CC(=O)N2C[C@H](F)C[C@H]2CC(=O)O)c2ccc(-c3cnc(C)nc3)cc12` [Compound 577, 2-((2R,4R)-1-(2-(3-Acetyl-5-(2-methylpyrimidin-5-yl)-1H-indazol-1-yl)acetyl)-4-fluoropyrrolidin-2-yl)acetic Acid] cannot be ordered by IC50: over 10 µM for the first, over 10 µM for the second.

`Cc1cccc(NC(=O)[C@@H]2CCC(F)CCN2C(=O)Cn2cc(C(N)=O)c3cc(-c4cnc(C)nc4)ccc32)n1` (stereo partly drawn) [Compound 578, 1-(2-((2S)-5-Fluoro-2-((6-methylpyridin-2-yl)carbamoyl)azepan-1-yl)-2-oxoethyl)-5-(2-methylpyrimidin-5-yl)-1H-indole-3-carboxamide] and `Cc1ccc(-c2ccc3c(c2)c(C(N)=O)cn3CC(=O)N2CCC(F)CC[C@H]2C(=O)Nc2cccc(C)n2)cn1` (stereo partly drawn) [Compound 586, 1-(2-((2S)-5-Fluoro-2-((6-methylpyridin-2-yl)carbamoyl)azepan-1-yl)-2-oxoethyl)-5-(6-methylpyridin-3-yl)-1H-indole-3-carboxamide] cannot be ordered by IC50: over 10 µM for the first, over 10 µM for the second.

First: CC(=O)c1nn(CC(=O)N2C[C@H](F)C[C@H]2CC(=O)NC#N)c2ccc(-c3cnc(C)nc3)cc12 [Compound 579, 2-((2R,4R)-1-(2-(3-Acetyl-5-(2-methylpyrimidin-5-yl)-1H-indazol-1-yl)acetyl)-4-fluoropyrrolidin-2-yl)-N-cyanoacetamide]
Second: CC(=O)c1nn(CC(=O)N2C[C@H](F)C[C@H]2c2nnc(CCCC(F)(F)F)o2)c2ccc(-c3cnc(C)nc3)cc12 [Compound 583, 2-(3-Acetyl-5-(2-methylpyrimidin-5-yl)-H-indazol-1-yl)-1-((2S,4R)-4-fluoro-2-(5-(4,4,4-trifluorobutyl)-1,3,4-oxadiazol-2-yl)pyrrolidin-1-yl)ethan-1-one]
The IC50 of the first is higher: over 10 µM for the first, 1 to 10 µM for the second. The second is the more potent here.

First: CCOP(=O)(OCC)OC[C@@]12C[C@@H]1N(C(=O)Cn1nc(C(C)=O)c3cc(-c4cnc(C)nc4)ccc31)[C@H](C(=O)Nc1cccc(Br)n1)C2 [Compound 581, ((1S,3S,5R)-2-(2-(3-Acetyl-5-(2-methylpyrimidin-5-yl)-1H-indazol-1-yl)acetyl)-3-(6-bromopyridin-2-ylcarbamoyl)-2-azabicyclo[3.1.0]hexan-5-yl)methyl Diethyl Phosphate]
Second: CCOP(=O)(OCC)OC[C@@]12C[C@@H](C(=O)Nc3cccc(Br)n3)N(C(=O)Cn3nc(C(C)=O)c4cc(-c5cnc(C)nc5)ccc43)[C@@H]1C2 [Compound 582, ((1R,3S,5S)-2-(2-(3-Acetyl-5-(2-methylpyrimidin-5-yl)-1H-indazol-1-yl)acetyl)-3-(6-bromopyridin-2-ylcarbamoyl)-2-azabicyclo[3.1.0]hexan-5-yl)methyl diethyl phosphate]
The IC50 of the first is higher: 1 to 10 µM for the first, under 1 µM for the second. The second is the more potent here.

First: CC(=O)c1nn(CC(=O)N2C[C@H](F)C[C@H]2c2nnc(CCCC(F)(F)F)[nH]2)c2ccc(-c3cnc(C)nc3)cc12 [Compound 584, 2-(3-Acetyl-5-(2-methylpyrimidin-5-yl)-1H-indazol-1-yl)-1-((2S,4R)-4-fluoro-2-(5-(4,4,4-trifluorobutyl)-4H-1,2,4-triazol-3-yl)pyrrolidin-1-yl)ethan-1-one]
Second: Cc1cccc(NC(=O)[C@@H]2CCC(F)CCN2C(=O)Cn2cc(C(N)=O)c3cc(-c4ccc(F)nc4)ccc32)n1 (stereo partly drawn) [Compound 590, 1-(2-((2S)-5-Fluoro-2-((6-methylpyridin-2-yl)carbamoyl)azepan-1-yl)-2-oxoethyl)-5-(6-fluoropyridin-3-yl)-1H-indole-3-carboxamide]
The IC50 of the first is lower: 1 to 10 µM for the first, over 10 µM for the second.

`Cc1cccc(NC(=O)[C@@H]2CCC(F)CCN2C(=O)Cn2cc(C(N)=O)c3cc(-c4ccc5c(c4)CC5)ccc32)n1` (stereo partly drawn) [Compound 587, 5-(1,2-Dihydrocyclobutabenzen-4-yl)-1-(2-((2S)-5-fluoro-2-(6-methylpyridin-2-ylcarbamoyl)azepan-1-yl)-2-oxoethyl)-1H-indole-3-carboxamide] and `Cc1cccc(NC(=O)[C@@H]2CCC(F)CCN2C(=O)Cn2cc(C(N)=O)c3cc(-c4ccc5c(c4)CCCC5)ccc32)n1` (stereo partly drawn) [Compound 589, 1-(2-((2S)-5-fluoro-2-((6-methylpyridin-2-yl)carbamoyl)azepan-1-yl)-2-oxoethyl)-5-(5,6,7,8-tetrahydronaphthalen-2-yl)-1H-indole-3-carboxamide] cannot be ordered by IC50: over 10 µM for the first, over 10 µM for the second.

`Cc1cccc(NC(=O)[C@@H]2CCC(F)CCN2C(=O)Cn2cc(C(N)=O)c3cc(-c4cccnc4)ccc32)n1` (stereo partly drawn) [Compound 588, 1-(2-((2S)-5-Fluoro-2-((6-methylpyridin-2-yl)carbamoyl)azepan-1-yl)-2-oxoethyl)-5-(pyridin-3-yl)-1H-indole-3-carboxamide] and `Cc1cccc(NC(=O)[C@@H]2CCC(F)CCN2C(=O)Cn2cc(C(N)=O)c3cc(-c4cccc(C#N)c4)ccc32)n1` (stereo partly drawn) [Compound 591, 5-(3-Cyanophenyl)-1-(2-((2S)-5-fluoro-2-(6-methylpyridin-2-ylcarbamoyl)azepan-1-yl)-2-oxoethyl)-1H-indole-3-carboxamide] cannot be ordered by IC50: over 10 µM for the first, over 10 µM for the second.
